Data reported in patent US8471005B2 (Cephalon, Inc., priority 2008, dated 2013).
Like-named read-outs stand apart in the source and are kept apart here.

Columns and labels:
[1] = target: T1, ALK (Homo sapiens, UniProt Q9UM73); assay: ALK Kinase Assay (ELISA/TRF, PLC-γ substrate); type: biochemical; details: read-out: ALK Potency
T1 construct: host or cells: baculovirus expression system
Procedure, shortened: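 PLC-γ coat 10 μg/mL in TBS; ALK 30 ng/ml added to start; 37° C, 15 min; Eu-N1 PT66 antibody detection (TRF). IC50: % inhibition vs log10 [cpd], variable-slope sigmoidal fit.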

[2] = target: T2, JAK2 (Homo sapiens, UniProt O60674); assay: Recombinant Human JAK2 Kinase Assay (TRF); type: biochemical; details: read-out: JAK2 Potency
T2 construct: host or cells: baculovirus expression system
T2 sequence (O60674 whole entry): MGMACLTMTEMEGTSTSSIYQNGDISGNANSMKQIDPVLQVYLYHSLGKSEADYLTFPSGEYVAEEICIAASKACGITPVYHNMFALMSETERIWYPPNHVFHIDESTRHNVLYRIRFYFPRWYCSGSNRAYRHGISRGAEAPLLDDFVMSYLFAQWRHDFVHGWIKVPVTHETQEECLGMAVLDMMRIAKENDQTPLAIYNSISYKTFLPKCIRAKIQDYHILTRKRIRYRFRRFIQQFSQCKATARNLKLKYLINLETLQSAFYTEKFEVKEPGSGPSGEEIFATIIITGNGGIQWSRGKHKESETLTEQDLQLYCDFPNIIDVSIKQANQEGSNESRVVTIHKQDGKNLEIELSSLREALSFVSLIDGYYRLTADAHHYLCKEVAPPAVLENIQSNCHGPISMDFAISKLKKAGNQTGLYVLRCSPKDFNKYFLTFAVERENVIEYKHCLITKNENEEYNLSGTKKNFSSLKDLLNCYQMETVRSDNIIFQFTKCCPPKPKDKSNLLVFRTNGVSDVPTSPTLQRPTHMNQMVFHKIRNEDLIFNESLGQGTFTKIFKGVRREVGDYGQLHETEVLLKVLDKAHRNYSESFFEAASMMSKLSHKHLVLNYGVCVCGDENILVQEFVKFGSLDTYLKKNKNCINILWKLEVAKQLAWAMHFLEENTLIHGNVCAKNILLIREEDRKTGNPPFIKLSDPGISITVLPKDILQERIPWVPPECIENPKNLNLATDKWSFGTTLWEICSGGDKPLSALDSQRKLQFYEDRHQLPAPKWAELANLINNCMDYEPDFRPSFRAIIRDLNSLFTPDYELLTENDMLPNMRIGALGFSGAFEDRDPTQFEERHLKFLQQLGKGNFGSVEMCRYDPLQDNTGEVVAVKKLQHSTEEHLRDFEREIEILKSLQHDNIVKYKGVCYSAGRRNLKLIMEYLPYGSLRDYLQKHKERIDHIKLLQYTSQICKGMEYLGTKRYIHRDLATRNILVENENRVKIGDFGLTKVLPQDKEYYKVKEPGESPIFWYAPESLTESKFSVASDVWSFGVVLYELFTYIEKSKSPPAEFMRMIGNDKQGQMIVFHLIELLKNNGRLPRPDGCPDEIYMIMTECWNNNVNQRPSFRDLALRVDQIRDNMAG
Procedure, shortened: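 TRF read-out: Eu-N1 PY100 anti-phosphotyrosine antibody detects product. Enzyme is baculovirus-expressed JAK2 at 15 ng/ml; substrate is a biotinyl 15-mer peptide bound to Neutravidin-coated wells. Buffer 20 mM HEPES pH 7.2, 0.2 μM ATP, 1 mM MnCl2, 0.1% BSA, 2.5% DMSO final; 20 min, RT.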

[3] = ALK kinase inhibition, 1 μM ATP
[4] = JAK2 kinase inhibition, 0.2 μM ATP

T1 sequence (Q9UM73 19-1620): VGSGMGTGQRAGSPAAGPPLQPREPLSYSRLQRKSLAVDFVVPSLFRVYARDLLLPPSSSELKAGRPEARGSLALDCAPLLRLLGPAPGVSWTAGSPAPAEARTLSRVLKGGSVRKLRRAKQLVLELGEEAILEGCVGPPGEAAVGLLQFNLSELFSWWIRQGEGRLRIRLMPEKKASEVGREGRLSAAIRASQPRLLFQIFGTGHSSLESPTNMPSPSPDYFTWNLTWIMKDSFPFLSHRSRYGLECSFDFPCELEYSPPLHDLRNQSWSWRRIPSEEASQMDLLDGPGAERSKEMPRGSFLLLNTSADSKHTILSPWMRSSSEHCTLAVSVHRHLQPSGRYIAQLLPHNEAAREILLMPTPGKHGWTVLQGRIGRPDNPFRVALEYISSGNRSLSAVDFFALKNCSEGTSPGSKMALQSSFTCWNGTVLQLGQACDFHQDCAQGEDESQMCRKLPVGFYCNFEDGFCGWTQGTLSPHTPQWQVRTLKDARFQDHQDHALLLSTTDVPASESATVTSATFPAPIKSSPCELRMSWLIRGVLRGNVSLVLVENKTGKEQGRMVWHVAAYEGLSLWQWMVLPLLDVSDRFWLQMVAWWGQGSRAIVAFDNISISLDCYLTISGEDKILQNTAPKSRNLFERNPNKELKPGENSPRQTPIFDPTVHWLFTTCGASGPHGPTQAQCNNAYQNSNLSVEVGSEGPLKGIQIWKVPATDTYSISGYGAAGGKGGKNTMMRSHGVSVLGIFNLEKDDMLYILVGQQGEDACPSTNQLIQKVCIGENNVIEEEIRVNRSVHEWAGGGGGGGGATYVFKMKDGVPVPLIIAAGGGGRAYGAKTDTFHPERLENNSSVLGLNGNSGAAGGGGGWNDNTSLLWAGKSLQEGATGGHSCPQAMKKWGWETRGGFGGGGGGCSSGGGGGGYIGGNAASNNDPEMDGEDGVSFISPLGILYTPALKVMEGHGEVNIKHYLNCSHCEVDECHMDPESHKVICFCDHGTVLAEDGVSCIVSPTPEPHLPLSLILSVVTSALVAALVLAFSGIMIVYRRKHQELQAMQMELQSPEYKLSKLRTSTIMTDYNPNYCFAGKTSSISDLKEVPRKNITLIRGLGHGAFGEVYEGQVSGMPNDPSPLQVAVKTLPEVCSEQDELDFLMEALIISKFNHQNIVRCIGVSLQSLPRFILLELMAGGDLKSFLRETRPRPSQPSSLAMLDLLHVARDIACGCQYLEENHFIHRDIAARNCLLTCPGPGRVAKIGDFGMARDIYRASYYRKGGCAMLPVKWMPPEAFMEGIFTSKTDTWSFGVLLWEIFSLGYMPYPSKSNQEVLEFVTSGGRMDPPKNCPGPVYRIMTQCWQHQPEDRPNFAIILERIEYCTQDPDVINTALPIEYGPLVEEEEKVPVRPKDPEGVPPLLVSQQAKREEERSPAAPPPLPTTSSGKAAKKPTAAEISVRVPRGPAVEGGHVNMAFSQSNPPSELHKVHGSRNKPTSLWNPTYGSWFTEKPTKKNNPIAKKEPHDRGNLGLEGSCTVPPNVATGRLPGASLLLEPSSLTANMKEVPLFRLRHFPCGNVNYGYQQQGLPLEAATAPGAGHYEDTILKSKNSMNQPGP

Row | IC50 ([1]; ALK Kinase Inhibition) | IC50 ([2]; JAK2 Kinase Inhibition) | IC50 [1, 3] | IC50 [2, 4] | Structure (SMILES)
1 | < 100 nM | 100 to 1000 nM | – | – | COc1ccccc1-c1ccc2cnc(Nc3ccc4c(c3OC)CCC(N3CCOCC3)CC4)nn12 (stereo not shown) [Example 1452, (1-Methoxy-7-morpholin-4-yl-6,7,8,9-tetrahydro-5H-benzo cyclohepten-2-yl)-[7-(2-methoxy-phenyl)-pyrrolo[2,1-f][1,2,4]triazin-2-yl]-amine]
2 | 1000 to 10000 nM | < 100 nM | – | – | CC(=O)Nc1cccc(Nc2ncc3ccc(-c4ccccc4NS(C)(=O)=O)n3n2)c1 [Example 1382, N-{3-[7-(2-Methanesulfonylamino-phenyl)-pyrrolo[2,1-f][1,2,4]triazin-2-ylamino]-phenyl}-acetamide]
3 | 100 to 1000 nM | < 100 nM | – | – | COc1cc(Nc2ncc3ccc(-c4cc(Cl)ccc4OC)n3n2)cc(OC)c1 [Example 157, [7-(5-Chloro-2-methoxy-phenyl)-pyrrolo[2,1-f][1,2,4]triazin-2-yl]-(3,5-dimethoxy-phenyl)-amine]
4 | 1000 to 10000 nM | < 100 nM | – | – | Cn1cc(-c2ccc3cnc(Nc4ccc(N5CCOCC5)cc4)nn23)cn1 [Example 10, [7-(1-Methyl-1H-pyrazol-4-yl)-pyrrolo[2,1-f][1,2,4]triazin-2-yl]-(4-morpholin-4-yl-phenyl)-amine]
5 | – | – | > 10000 nM | < 100 nM | CN1CCN(C)C(c2cccc(Nc3ncc4ccc(-c5cccc(S(=O)(=O)N6CCOCC6)c5)n4n3)c2)C1=O (stereo not shown) [Example 1078, 1,4-Dimethyl-3-(3-{7-[3-(morpholine-4-sulfonyl)-phenyl]-pyrrolo[2,1-f][1,2,4]triazin-2-ylamino}-phenyl)-piperazin-2-one]
6 | 100 to 1000 nM | < 100 nM | – | – | C[C@@H](O)CN1CCN(c2cccc(Nc3ncc4ccc(-c5ccc(S(C)(=O)=O)cc5)n4n3)c2)CC1 [Example 217, (R)-1-(4-{3-[7-(4-Methanesulfonyl-phenyl)-pyrrolo[2,1-f][1,2,4]triazin-2-ylamino]-phenyl}-piperazin-1-yl)-propan-2-ol]
7 | < 100 nM | < 100 nM | – | – | COc1cc(N2CCC(N3CCOCC3)CC2)ccc1Nc1ncc2ccc(-c3ccccc3OC(C)C)n2n1 [Example 1451, [7-(2-Isopropoxy-phenyl)-pyrrolo[2,1-f][1,2,4]triazin-2-yl]-[2-methoxy-4-(4-morpholin-4-yl-piperidin-1-yl)-phenyl]-amine]
8 | – | – | 1000 to 10000 nM | < 100 nM | COc1ccc(-c2ccc3cnc(Nc4ccc5ncn(C)c5c4)nn23)cn1 [Example 1307, [7-(6-Methoxy-pyridin-3-yl)-pyrrolo[2,1-f][1,2,4]triazin-2-yl]-(3-methyl-3H-benzimidazol-5-yl)-amine]
9 | – | – | < 100 nM | < 100 nM | COc1ccccc1-c1ccc2cnc(Nc3ccc(C4CCNC4)cc3)nn12 (stereo not shown) [Example 1012, [7-(2-Methoxy-phenyl)-pyrrolo[2,1-f][1,2,4]triazin-2-yl]-(4-pyrrolidin-3-yl-phenyl)-amine]
10 | – | – | 1000 to 10000 nM | < 100 nM | CS(=O)(=O)c1cccc(-c2ccc3cnc(Nc4ccc(Cl)c(OC[C@@H]5CCCN5)c4)nn23)c1 [Example 1020, [4-Chloro-3-((S)-1-pyrrolidin-2-ylmethoxy)-phenyl]-[7-(3-methanesulfonyl-phenyl)-pyrrolo[2,1-f][1,2,4]triazin-2-yl]-amine]
11 | – | – | > 10000 nM | 1000 to 10000 nM | COc1ccccc1-c1ccn2nc(NCc3cccc(N(C)C)c3)ncc12 [Example 721, (3-Dimethylamino-benzyl)-[5-(2-methoxy-phenyl)-pyrrolo[2,1-f][1,2,4]triazin-2-yl]-amine]
12 | – | – | < 100 nM | < 100 nM | CN(c1ccccc1-c1ccc2cnc(Nc3ccc4c(c3)C(C)(C)C(=O)N4)nn12)S(C)(=O)=O [Example 632, N-{2-[2-(3,3-Dimethyl-2-oxo-2,3-dihydro-1H-indol-5-ylamino)-pyrrolo[2,1-f][1,2,4]triazin-7-yl]phenyl}N-methyl-methanesulfonamide]
13 | – | – | 100 to 1000 nM | 100 to 1000 nM | COc1cc(N2CCC(N3CCOCC3)C2)ccc1Nc1ncc2ccc(-c3ccccc3OC)n2n1 (racemic) [Example 779, (±)-[2-Methoxy-4-(3-morpholin-4-yl-pyrrolidin-1-yl)-phenyl]-[7-(2-methoxyphenyl)-pyrrolo[2,1-f][1,2,4]triazin-2-yl]-amine]
14 | – | – | 1000 to 10000 nM | < 100 nM | CN(c1ccccc1-c1ccc2cnc(Nc3ccc4cnn(CCN5CCOCC5)c4c3)nn12)S(C)(=O)=O [Example 1334, N-Methyl-N-(2-{2-[1-(2-morpholin-4-yl-ethyl)-1H-indazol-6-ylamino]-pyrrolo[2,1-f][1,2,4]triazin-7-yl}-phenyl)-methanesulfonamide]
15 | 1000 to 10000 nM | < 100 nM | – | – | NC(=O)c1ccccc1-c1ccc2cnc(Nc3ccc(N4CCOCC4)cc3)nn12 [Example 36, 2-[2-(4-Morpholin-4-yl-phenylamino)-pyrrolo[2,1-f][1,2,4]triazin-7-yl]-benzamide]
16 | < 100 nM | < 100 nM | – | – | C[C@H](O)CN1CCN(c2ccc(Nc3ncc4ccc(-c5cccc(Cl)c5)n4n3)cc2)CC1 [Example 204, (S)-1-(4-{4-[7-(3-Chloro-phenyl)-pyrrolo[2,1-f][1,2,4]triazin-2-ylamino]-phenyl}-piperazin-1-yl)-propan-2-ol]
17 | – | – | < 100 nM | < 100 nM | COc1cc([C@@]2(O)CCN(CCF)C[C@@H]2O)ccc1Nc1ncc2ccc(-c3ccccc3OC)n2n1 (racemic) [Example 833, (±)-(3S,4S)-1-(2-Fluoro-ethyl)-4-{3-methoxy-4-[7-(2-methoxy-phenyl)-pyrrolo[2,1-f][1,2,4]triazin-2-ylamino]-phenyl}-piperidine-3,4-diol]
18 | – | – | 1000 to 10000 nM | < 100 nM | COc1ccc(-c2ccc3cnc(Nc4cccc(N)c4)nn23)cn1 [Example 898, N-[7-(6-Methoxy-pyridin-3-yl)-pyrrolo[2,1-f][1,2,4]triazin-2-yl]-benzene-1,3-diamine]
19 | < 100 nM | < 100 nM | – | – | COc1cc(N2CCN(C3CCOCC3)CC2)ccc1Nc1ncc2ccc(-c3ccccc3OC)n2n1 [Example 1472, [7-(2-Methoxy-phenyl)-pyrrolo[2,1-f][1,2,4]triazin-2-yl]-{2-methoxy-4-[4-(tetrahydro-pyran-4-yl)-piperazin-1-yl]-phenyl}-amine]
20 | 100 to 1000 nM | < 100 nM | – | – | CN1CCN(c2ccc(Nc3ncc4ccc(-c5ccc(C(=O)N6CCOCC6)cc5)n4n3)cc2)CC1 [Example 19, (4-{2-[4-(4-Methyl-piperazin-1-yl)-phenylamino]-pyrrolo[2,1-f][1,2,4]triazin-7-yl}-phenyl)-morpholin-4-yl-methanone]
21 | – | – | 1000 to 10000 nM | < 100 nM | c1ccc2ncc(-c3ccc4cnc(Nc5ccc(N6CCOCC6)cc5)nn34)cc2c1 [Example 1033, (4-Morpholin-4-yl-phenyl)-(7-quinolin-3-yl-pyrrolo[2,1-f][1,2,4]triazin-2-yl)-amine]
22 | – | – | < 100 nM | < 100 nM | CN(c1ccccc1-c1ccc2cnc(Nc3ccc(C4CN(CC(N)=O)C4)cc3)nn12)S(C)(=O)=O [Example 586, 2-[3-(4-{7-[2-(Methanesulfonyl-methyl-amino)-phenyl]-pyrrolo[2,1-f][1,2,4]triazin-2-ylamino}-phenyl)-azetidin-1-yl]-acetamide]
23 | – | – | 1000 to 10000 nM | < 100 nM | COc1ccc(-c2ccc3cnc(Nc4ccn(CC(=O)N5CCN(C)CC5)n4)nn23)cn1 [Example 1115, 2-{3-[7-(6-Methoxy-pyridin-3-yl)-pyrrolo[2,1-f][1,2,4]triazin-2-ylamino]-pyrazol-1-yl}-1-(4-methyl-piperazin-1-yl)-ethanone]
24 | 1000 to 10000 nM | < 100 nM | – | – | CS(=O)(=O)Nc1cccc(-c2ccc3cnc(Nc4ccc(N5CCOCC5)cc4F)nn23)c1 [Example 371, N-{3-[2-(2-Fluoro-4-morpholin-4-yl-phenylamino)-pyrrolo[2,1-f][1,2,4]triazin-7-yl]-phenyl}-methanesulfonamide]
25 | – | – | < 100 nM | < 100 nM | COc1cc(N2CCN(C[C@@H](C)O)CC2)ccc1Nc1ncc2ccc(-c3cc(Cl)ccc3OC)n2n1 [Example 756, (R)-1-(4-{4-[7-(5-Chloro-2-methoxy-phenyl)-pyrrolo[2,1-f][1,2,4]triazin-2-ylamino]-3-methoxy-phenyl}-piperazin-1-yl)-propan-2-ol]
26 | – | – | 1000 to 10000 nM | < 100 nM | O=S(=O)(c1cccc(-c2ccc3cnc(Nc4ccc5nc(CO)[nH]c5c4)nn23)c1)N1CCOCC1 [Example 1068, (6-{7-[3-(Morpholine-4-sulfonyl)-phenyl]-pyrrolo[2,1-f][1,2,4]triazin-2-ylamino}-1H-benzoimidazol-2-yl)-methanol]
27 | – | – | 1000 to 10000 nM | < 100 nM | CC(C)(C)NS(=O)(=O)c1cccc(-c2ccc3cnc(Nc4ccc(=O)[nH]c4)nn23)c1 [Example 590, N-tert-Butyl-3-[2-(6-oxo-1,6-dihydro-pyridin-3-ylamino)-pyrrolo[2,1-f][1,2,4]triazin-7-yl]-benzenesulfonamide]
28 | < 100 nM | < 100 nM | – | – | C[C@H](O)CN1CCC(c2ccc(Nc3ncc4ccc(-c5ccc(S(C)(=O)=O)cc5)n4n3)cc2)CC1 [Example 1432, (S)-1-(4-{4-[7-(4-Methanesulfonyl-phenyl)-pyrrolo[2,1-f][1,2,4]triazin-2-ylamino]-phenyl}-piperidin-1-yl)-propan-2-ol]

Row | Structure (SMILES) | IC50 ([1]; ALK Kinase Inhibition) | IC50 ([2]; JAK2 Kinase Inhibition) | IC50 [1, 3] | IC50 [2, 4]
29 | COc1ccc(-c2ccc3cnc(Nc4ccc(C5(C#N)CCN(CC(N)=O)CC5)cc4)nn23)cn1 [Example 1545, 2-(4-Cyano-4-{4-[7-(6-methoxy-pyridin-3-yl)-pyrrolo[2,1-f][1,2,4]triazin-2-ylamino]-phenyl}-piperidin-1-yl)-acetamide] | 100 to 1000 nM | < 100 nM | – | –
